Assay results from patent US10837044B2, “Automated method for analyzing and interpreting an antimicrobial susceptibility” (FONDATION MEDITERRANEE INFECTION, priority 2014, dated 2020).

Key:
Enterobacter aerogenes = assay: antibiogram by diffusion on Mueller-Hinton agar with antibiotic wafers; format: cell-based; conditions: Table C1, six wafers, disk loads of Table B
Enterobacter cloacea = assay: as above; format: cell-based; conditions: Table C1, six wafers, disk loads of Table B
Klebsiella pneumoniae = assay: as above; format: cell-based; conditions: for resistance (I, R) or sensitivity (S): Table C1, six wafers, disk loads of Table B; for resistant (I/R) or sensitive (S): Table C2, sixteen wafers, square dish
Proteus mirabilis = assay: as above; format: cell-based; conditions: Table C1, six wafers, disk loads of Table B
Klebsiella oxytoca = assay: as above; format: cell-based; conditions: Table C1; K. oxytoca phenotype Wild; six wafers, disk loads of Table B
Escherichia coli = assay: as above; format: cell-based; conditions: for resistance (I, R) or sensitivity (S): Table C1, disk loads of Table B; for resistant (I/R) or sensitive (S): Table C2, square dish
BSBL bacteria = conditions: all of the BSBL bacteria in Table C1
Source text: Synergies are generated with the method on agar by the antibiotics diffusing in the agar as a result of the fact that providing the distance between two antibiotics is small enough (in the range 2 centimeters (cm) to 2.5 cm for Gram negative bacteria) they are capable of diffusing over a common portion of the agar, and as a result it is the association of the two antibiotics in this specific location that makes it possible, where appropriate, to see the appearance of a new inhibition zone, which is the synergy zone.
In the event of synergy occurring, it is possible to see mechanisms of synergy between two antibiotics since an additional inhibition zone appears generally between the two antibiotics in question. It may be in the form of an enlargement of the diameter around the disk A going towards the disk B if A and B present mutual synergy.
The BSBL phenotype includes a synergy phenotype between ceftriaxone and clavulanic acid, and thus between CRO and TCC or AMC (for all of the BSBL bacteria in the table).

Pseudomonas aeruginosa = assay: antibiogram by diffusion on Mueller-Hinton agar with antibiotic wafers; format: cell-based; conditions: Table C1, six wafers, disk loads of Table B
[1] = K. pneumoniae phenotype Carbapenemase
[2] = K. pneumoniae phenotype Hl cephalosporinase
[3] = K. pneumoniae phenotype Hl penicillinase
[4] = K. pneumoniae phenotype Ll penicillinase
[5] = K. pneumoniae phenotype Cephalosporinase + R to aminosides + R to cotrimoxazole
[6] = P. mirabilis phenotype Hl cephalosporinase
[7] = P. mirabilis phenotype Hl penicillinase
[8] = P. mirabilis phenotype Inhibitor resistant penicillinase
[9] = P. mirabilis phenotype Ll penicillinase
[10] = E. coli strain of BSBL phenotype, champagne-cork shaped inhibition zone
[11] = E. coli phenotype BSBL, six wafers
[12] = E. coli phenotype Carbapenemase, six wafers
[13] = E. coli phenotype Hl cephalosporinase, six wafers
[14] = E. coli phenotype Hl penicillinase, six wafers
[15] = E. coli phenotype Inhibitor resistant penicillinase, six wafers
[16] = E. coli phenotype Ll penicillinase, six wafers
[17] = E. coli phenotype Wild, six wafers in a circle
[18] = E. coli phenotype Cephalosporinase + R to fluoroquinolones + R to cotrimoxazole + partial R to aminosides, sixteen wafers
[19] = E. coli phenotype Hl penicillinase + R to fluoroquinolones + R to cotrimoxazole + partial R to aminosides, sixteen wafers
[20] = E. coli phenotype Wild, sixteen wafers in a rectangular grid

| Compound | resistance (I, R) or sensitivity (S) (Enterobacter aerogenes; E. aerogenes phenotype BSBL) | resistant (I/R) or sensitive (S) (Klebsiella pneumoniae; [5]) | resistant (I/R) or sensitive (S) (Klebsiella pneumoniae; K. pneumoniae phenotype Wild) | resistance (I, R) or sensitivity (S) (Proteus mirabilis; [6]) | resistance (I, R) or sensitivity (S) (Proteus mirabilis; [7]) | resistance (I, R) or sensitivity (S) (Proteus mirabilis; [8]) | resistance (I, R) or sensitivity (S) (Proteus mirabilis; [9]) | resistance (I, R) or sensitivity (S) (Proteus mirabilis; P. mirabilis phenotype Wild) | synergy zone between two antibiotic wafers placed side by side (Escherichia coli; [10]) | resistance (I, R) or sensitivity (S) (Escherichia coli; [11]) | resistance (I, R) or sensitivity (S) (Escherichia coli; [12]) | resistance (I, R) or sensitivity (S) (Escherichia coli; [13]) | resistance (I, R) or sensitivity (S) (Escherichia coli; [14]) | resistance (I, R) or sensitivity (S) (Escherichia coli; [15]) | resistance (I, R) or sensitivity (S) (Escherichia coli; [16]) | resistance (I, R) or sensitivity (S) (Escherichia coli; [17]) | resistant (I/R) or sensitive (S) (Escherichia coli; [18]) | resistant (I/R) or sensitive (S) (Escherichia coli; [19]) | resistant (I/R) or sensitive (S) (Escherichia coli; [20]) | synergy phenotype between antibiotics (BSBL bacteria) | also measured |
| --- | --- | --- | --- | --- | --- | --- | --- | --- | --- | --- | --- | --- | --- | --- | --- | --- | --- | --- | --- | --- | --- |
| CO/N=C(\C(=O)N[C@@H]1C(=O)N2C(C(=O)O)=C(CSc3nc(=O)c(=O)[nH]n3C)CS[C@H]12)c1csc(N)n1 [CRO, ceftriaxone] | R | R | R | R | S | S | S | S | synergy zone | R | R | R | S | S | S | S | R | S | S | synergy | resistance (I, R) or sensitivity (S) (Enterobacter aerogenes; E. aerogenes phenotype Wild): S; resistance (I, R) or sensitivity (S) (Enterobacter cloacea; E. cloacae phenotype BSBL): R; resistance (I, R) or sensitivity (S) (Enterobacter cloacea; E. cloacae phenotype Wild): S; resistance (I, R) or sensitivity (S) (Klebsiella pneumoniae; K. pneumoniae phenotype BSBL): I/R; resistance (I, R) or sensitivity (S) (Klebsiella pneumoniae; [1]): R; resistance (I, R) or sensitivity (S) (Klebsiella pneumoniae; [2]): I/R; resistance (I, R) or sensitivity (S) (Klebsiella pneumoniae; [3]): I; resistance (I, R) or sensitivity (S) (Klebsiella pneumoniae; [4]): S; resistance (I, R) or sensitivity (S) (Klebsiella pneumoniae; K. pneumoniae phenotype Wild): S; resistance (I, R) or sensitivity (S) (Klebsiella oxytoca): S; synergy zone between two antibiotic wafers placed side by side (Escherichia coli; E. coli strain of BSBL phenotype, champagne-cork shaped inhibition zone, listed as ceftriaxone): synergy |
| amoxicillin-clavulanic acid [AMC] | R | R | R | R | I | R | S | S | synergy zone | R | R | R | I/R | R | S | S | R | I | S | synergy | resistance (I, R) or sensitivity (S) (Enterobacter aerogenes; E. aerogenes phenotype Wild): S; resistance (I, R) or sensitivity (S) (Enterobacter cloacea; E. cloacae phenotype BSBL): R; resistance (I, R) or sensitivity (S) (Enterobacter cloacea; E. cloacae phenotype Wild): S; resistance (I, R) or sensitivity (S) (Klebsiella pneumoniae; K. pneumoniae phenotype BSBL): R; resistance (I, R) or sensitivity (S) (Klebsiella pneumoniae; [1]): R; resistance (I, R) or sensitivity (S) (Klebsiella pneumoniae; [2]): I/R; resistance (I, R) or sensitivity (S) (Klebsiella pneumoniae; [3]): I/R; resistance (I, R) or sensitivity (S) (Klebsiella pneumoniae; [4]): S; resistance (I, R) or sensitivity (S) (Klebsiella pneumoniae; K. pneumoniae phenotype Wild): S; resistance (I, R) or sensitivity (S) (Klebsiella oxytoca): S; synergy zone between two antibiotic wafers placed side by side (Escherichia coli; E. coli strain of BSBL phenotype, champagne-cork shaped inhibition zone, listed as amoxicillin+clavulanic acid): synergy |
| ticarcillin-clavulanic acid [TCC] |  | R | R | R | I | R | S | S | presence of a zone of synergy | R | R | R | I/R | R | S | S | R | I | S | synergy | resistance (I, R) or sensitivity (S) (Pseudomonas aeruginosa; P. aeruginosa Abnormal phenotype): R; resistance (I, R) or sensitivity (S) (Pseudomonas aeruginosa; P. aeruginosa phenotype BSBL): I/R; resistance (I, R) or sensitivity (S) (Pseudomonas aeruginosa; P. aeruginosa phenotype Carbapenemase): R; resistance (I, R) or sensitivity (S) (Pseudomonas aeruginosa; P. aeruginosa phenotype Penicillinase): I/R; resistance (I, R) or sensitivity (S) (Pseudomonas aeruginosa; P. aeruginosa phenotype Selective imipenem permeability): S; resistance (I, R) or sensitivity (S) (Pseudomonas aeruginosa; P. aeruginosa phenotype Wild): S; synergy zone between two antibiotic wafers placed side by side (Escherichia coli; E. coli cephalosporinase phenotype (FIGS. 2D, 2E)): absence of a zone of synergy |
